The source of these data is PMC7145549, “A general strategy exploiting m^5C duplex-remodelling effect for selective detection of RNA and DNA m^5C methyltransferase activity in cells” (Nucleic Acids Research, 2019).

“Also recorded” adds a separate entry of the source. Like-named read-outs stand apart in the source and are kept apart here.

Data set [1] is described as follows: Fluorescence emission and quantum yield analysis of probes. It is filed as physicochemical. The settings on record: in MeOH, reference standard, authors' conditions. The procedure: Fluorescence analysis was performed using a Cary Eclipse fluorescence spectrophotometer, as previously reported with modifications ([36]). The fluorescence emission spectra (λem = 400–600 nm) of the probes were recorded in a quartz cuvette at 37°C, at a total stand concentration 5 μM in a buffer of 10 mM sodium phosphate buffer (pH 7.4) containing 150 mM NaCl and 20 mM MgCl2. An average of five scans was recorded. Background fluorescence spectra were acquired after the probe has been incubated for 30 min at 37°C. For determination of fluorescence quantum yields of the m^5C-probes, see Supplementary Data.
The fluorescence quantum yields (ΦF) of pyrene (Py)-labelled DNA probes 11a-c were determined as previously described.7,11 UV absorption of the probes λex 340 nm was measured on a Cary-300 UV-Visible spectrophotometer (Varian Inc.) from 0.1 to 0.03 absorbance units in 0.01 increments. The fluorescence emission spectra were immediately measured afterwards in a Cary Eclipse (Varian Inc.) fluorescent spectrophotometer with an excitation wavelength of 340 nm. Pyrenebutanoic acid (PBA) in methanol was used as a reference, and was calculated using the equation below. The reported quantum yields are an average of three measurements within ±10%. […]
ΦF(PBA) is the cross-calibrated value for the fluorescence quantum emission yield of pyrenebutanoic acid (PBA) in MeOH. […]

Data set [2] has as its target T1, NSUN2 (Homo sapiens, UniProt Q08J23). The data set can be described thus: Cell-based m5C-probe methyltransferase assay (flow cytometry, probe 9a). The procedure: The HeLa cells were pre-incubation with various concentrations of non-specific MTase inhibitors, including sinefungin, S-adenosyl-L-homocysteine (SAH), adenosine, and homocysteine at 37°C for 30 min. Nine different concentrations of inhibitors were used (0.1, 0.3, 1, 3, 10, 50, 100, 250, 1000 μM) and the final DMSO concentration was kept at less than 1% (v/v) of the assay mix. […] This was followed by the delivery of either the m^5C-probe 9a (10 μM) or control probe 10a (10 μM) into the cells via Lipofectamine 2000. Aliquots were then collected for flow cytometry measurements (λex 355 nm; λem 425–475 nm) at the indicated time points. The mean fluorescence intensity of at least 20 000 live cells was determined. IC50 determination: the IC50 values were then calculated from the variation in fluorescence at different inhibitor concentrations using nonlinear regression, with normalised dose-response fit on GraphPad Prism 6.0™. The assay was performed in triplicate for each inhibitor concentration. Z’ factor determination: the Z’ factor for our m^5C-probe assay was calculated using previously described method ([55]). For details, see Supplementary Data. […]
Cell-based m5C-probe methyltransferase assay
The HeLa cells were pre-incubation with various concentrations of DNA/RNA MTase inhibitors, including sinefungin, S-adenosyl-L-homocysteine (SAH), adenosine, and homocysteine at 37 °C for […]
and the final DMSO concentration was kept at less than 1% v/v of the assay mix. These concentrations […]
by the delivery of either the m5C-probe 9a (10 μM) or control probe 10a (10 μM) into the cells via Lipofectamine 2000, as described above. Aliquots were then collected for flow cytometry measurements (λex 355 nm; λem 425-475 nm) at the indicated time points. The mean fluorescence intensity of at least 20,000 live cells was determined.
For IC50 determination: the IC50 value were then calculated from the variation in fluorescence at different inhibitor concentrations using nonlinear regression, with normalised dose-response fit on GraphPad Prism 6.0™. The assay was performed in triplicate for each inhibitor concentration.
For the determination of Z’ factor: the Z’ factor for our m5C-probe assay was calculated using the method described by Zhang et al.17 A total of 40 independent assays were run with either sinefungin (1 mM; positive control) or DMSO (1% v/v; negative control). The Z’ factor was then calculated using […]
Where µp and µn are the means of the positive (p) and negative (n) controls σp and σn are the standard deviations of the positive (p) and negative (n) controls.
For orientation: In flow cytometry, cells or beads pass a laser one at a time.

For data set [3] the following is noted: free fluorophore; cited from earlier work.
Another data set deals with T2, DNMT3A (Homo sapiens, UniProt Q9Y6K1).
T2 construct: Full-length human DNMT3A protein containing N-terminal His-DDDDK tag was purchased from; His-DDDDK (N); purchased abcam plc; UK ab170408
T2 sequence (Q9Y6K1 whole entry, looked up): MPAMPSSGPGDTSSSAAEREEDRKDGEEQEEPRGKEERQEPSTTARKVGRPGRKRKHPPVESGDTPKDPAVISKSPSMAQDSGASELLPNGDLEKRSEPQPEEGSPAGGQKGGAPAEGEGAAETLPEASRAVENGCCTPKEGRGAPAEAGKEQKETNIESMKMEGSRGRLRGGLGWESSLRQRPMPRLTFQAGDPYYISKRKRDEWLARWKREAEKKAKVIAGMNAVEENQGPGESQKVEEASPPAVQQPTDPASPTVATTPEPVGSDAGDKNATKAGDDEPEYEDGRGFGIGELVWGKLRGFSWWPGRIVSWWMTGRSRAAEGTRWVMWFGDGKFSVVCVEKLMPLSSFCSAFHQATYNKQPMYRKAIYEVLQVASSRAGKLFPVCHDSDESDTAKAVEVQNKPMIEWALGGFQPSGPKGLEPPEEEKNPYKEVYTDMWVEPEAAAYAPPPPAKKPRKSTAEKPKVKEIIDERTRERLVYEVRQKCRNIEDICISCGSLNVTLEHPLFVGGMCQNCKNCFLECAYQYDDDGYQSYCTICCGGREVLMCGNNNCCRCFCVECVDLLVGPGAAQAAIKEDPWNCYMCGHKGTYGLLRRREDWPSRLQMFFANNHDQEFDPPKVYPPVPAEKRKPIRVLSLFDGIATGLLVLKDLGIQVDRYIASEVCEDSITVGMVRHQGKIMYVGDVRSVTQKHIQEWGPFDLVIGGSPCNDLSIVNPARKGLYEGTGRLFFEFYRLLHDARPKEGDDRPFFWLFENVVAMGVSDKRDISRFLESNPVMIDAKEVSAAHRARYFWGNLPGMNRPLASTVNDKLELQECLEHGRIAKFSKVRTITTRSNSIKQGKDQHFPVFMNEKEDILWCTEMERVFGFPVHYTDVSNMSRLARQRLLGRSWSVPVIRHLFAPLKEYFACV
Description: In vitro DNMT3A inhibition assay with DNA m5C-probe 11a. It is filed as biochemical. The settings on record: probe 11a 5 μM, DNMT3A 0.5 μM, 30 min; read-out: IC50 against DNMT3A. The procedure:
(§1) RNA methyltransferase assay: the assay was performed at 37°C in triplicate in a Corning Costar 96-well flat bottom black plate. Reaction consisted of enzyme (0.5 μM), methyl donor S-adenosyl-L-methionine (SAM; 200 μM), m^5C-probe 9a (substrate; 5 μM) or locked-probe 10a (control; 5 μM) in a 50 mM HEPES buffer (pH 7.4) containing 150 mM NaCl and 20 mM MgCl2. The final reaction volume is 25 μl. The time course of fluorescence activation was recorded immediately after the addition of enzyme with a Tecan ultra microplate reader (λex 360 nm; λem 465 nm). An average of five scans was recorded. DNA methyltransferase assay: the assay was performed as described above. Reaction consisted of enzyme (NSUN2 or DNMT3A; 0.5 μM), methyl donor S-adenosyl-L-methionine (SAM; 200 μM), DNA m^5C-probe 11a (substrate; 5 μM) in a 50 mM HEPES buffer (pH 7.4) containing 150 mM NaCl and 20 mM MgCl2. The fluorescence of the reaction was monitored at λem 400 nm (λex 340 nm).
Importantly, m^5C-probe 11a may also be applied to the inhibition study of DNMT3A. […] Work is currently underway to explore the possibility of employing both probes concurrently for the simultaneous detection of RNA and DNA m^5C MTase activity.

Data set [4] deals with T1, NSUN2. The data set can be described thus: In vitro m5C-probe fluorescence RNA methyltransferase assay. In kind it is biochemical. The arrangement: Full-length human NSUN2 (containing C-terminal MYC/DDK tag; TP314459); MYC/DDK (C); purchased Origene Technologies Inc., USA TP314459. The settings on record: inhibitor 10 μM, probe 9a 5 μM, NSUN2 0.5 μM. The procedure:
as §1
We next examined whether m^5C-probe 9a could function as fluorogenic substrate for RNA:m^5C MTase by testing it against NSUN2, which is of particular interest in light of emerging evidence linking NSUN2 with m^5C methylation of human mRNA ([14]) and its association with human cancers ([25–29]). […] The formation of methylated probe was measured by an increase in fluorescence signal at 465 nm (λex 360 nm).

The nature of data set [5]: UV-based thermal denaturation / thermodynamic analysis. In kind it is physicochemical. The settings on record: for increase in duplex stability on m5C methylation (ΔΔG°310): methylated vs unmethylated duplex. The procedure: UV-based thermal denaturation experiments
The melting of each duplex (1a, 1b, 7a, 7b, 11a and 11b) was performed on a Cary 300 UV-Visible Spectrophotometer (Varian) at a total strand concentration of 5 μM (unless otherwise stated) in 10 mM sodium phosphate buffer (pH 7.4), 150 mM NaCl and 20 mM MgCl2. Absorbance versus temperature profiles were recorded at 260 nm. The samples were first denatured by heating to 95 °C at 10 °C/min, followed by slow cooling to 25 °C at 0.4 °C/min to ensure a complete annealing of the strands. The melting transitions were then monitored by heating to 95 °C at 0.4 °C/min. To increase the accuracy of measurements, the sixth position was used to record the temperature data points by placing a temperature probe directly in the cuvette. Each oligo was measured at seven different concentrations (1, 2, 5, 10, 15, 20 and 30 μM), and a total of six independent melting transitions were measured for each concentration. The Tm values were determined by the Varian Cary Software using the baseline (alpha) method, which is defined as the point when the mole fraction of duplex was equal to 0.5. The melting transitions were generally found to be reproducible for all oligos studied.

Data set [6] can be described thus: CD conformational analysis at a range of MgCl2 concentrations. It is filed as physicochemical. The following applies: 25°C, pH 7.4, 150 mM NaCl, MgCl2 0-300 mM. The procedure: Circular dichroism (CD) spectroscopy
The CD spectra for the duplexes were obtained using a JASCO J-810 spectropolarimeter, as previously described.4 Measurements were carried out at 25 °C with 5 μM probes in a 10 mM sodium phosphate buffer (pH 7.4) containing 150 mM NaCl, and varying MgCl2 concentrations (0, 5, 10, 20, 100, and 300 mM). The concentrations were determined by UV absorbance at 260 nm (A260) using a NanoDrop ND-1000 UV-Visible Spectrophotometer. The oligo solutions were first heated to 90 °C for 5 min, and re-annealed by slow cooling to 4 °C at a rate of 1 °C/min. CD spectra were then recorded in quartz cuvettes (path length 1 mm, 400 μL) from 220 nm to 330 nm at 25 °C using a 10 nm/min scan speed, a spectral band width of 1 nm and a time constant of 4 s. All the spectra were subtracted with the buffer blank and smoothed using the Savitsky-Golay algorithm (polynomial order 10). […]

The mark [7] stands for this setting: HeLa cells, 30 min pre-incubation with inhibitor, probe 9a 10 μM, flow cytometry, read-out: IC50 against NSUN2.
The mark [8] stands for this setting: pH 7.4, 150 mM NaCl, 20 mM MgCl2.

T1 sequence (Q08J23 whole entry): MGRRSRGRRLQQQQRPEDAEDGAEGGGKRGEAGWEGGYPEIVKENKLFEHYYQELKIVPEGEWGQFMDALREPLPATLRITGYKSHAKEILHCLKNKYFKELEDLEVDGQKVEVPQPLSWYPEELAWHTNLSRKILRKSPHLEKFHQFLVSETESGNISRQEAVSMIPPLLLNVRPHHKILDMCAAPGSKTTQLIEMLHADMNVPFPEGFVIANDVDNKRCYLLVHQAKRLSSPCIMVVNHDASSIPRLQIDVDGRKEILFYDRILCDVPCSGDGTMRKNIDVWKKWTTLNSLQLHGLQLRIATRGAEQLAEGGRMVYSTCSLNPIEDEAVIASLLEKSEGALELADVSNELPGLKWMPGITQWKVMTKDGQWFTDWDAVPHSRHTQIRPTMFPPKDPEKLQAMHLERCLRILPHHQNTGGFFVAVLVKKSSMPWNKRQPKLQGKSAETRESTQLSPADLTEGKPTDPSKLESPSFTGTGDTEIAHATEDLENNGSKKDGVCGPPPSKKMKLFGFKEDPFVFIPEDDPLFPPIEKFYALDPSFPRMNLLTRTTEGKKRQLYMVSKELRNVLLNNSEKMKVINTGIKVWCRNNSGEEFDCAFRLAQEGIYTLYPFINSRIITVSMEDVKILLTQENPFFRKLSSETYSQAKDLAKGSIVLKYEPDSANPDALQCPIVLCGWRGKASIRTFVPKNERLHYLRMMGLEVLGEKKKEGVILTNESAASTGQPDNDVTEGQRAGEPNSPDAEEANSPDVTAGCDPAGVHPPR

Molecule `O=C(O)CCCc1ccc2ccc3cccc4ccc1c2c34` [PBA, Pyrenebutanoic acid] came in with a fluorescence quantum yield in data set [1] of 0.061.
For `Nc1ncnc2c1ncn2[C@@H]1O[C@H](CSCC[C@H](N)C(=O)O)[C@@H](O)[C@H]1O` [SAH, S-adenosyl-L-homocysteine], the IC50 (in general, the concentration needed to halve the response being measured) at NSUN2 [2] (setting [7]) was found to be 3.1 µM.
Turning to `O=c1nc2[nH]c(-c3ccccc3)cc2c[nH]1` [^pC, 6-phenylpyrrolocytosine], the “quantum yield (ΦF)” value in data set [3] was 0.31.
On to `Nc1ncnc2c1ncn2[C@@H]1O[C@H](CO)[C@@H](O)[C@H]1O` [adenosine], for which the IC50 is more than 200 µM on NSUN2 [2] (setting [7]) and 106 µM on DNMT3A.
As to `NC(CCS)C(=O)O` (centres unmarked) [homocysteine], on NSUN2 [2] (setting [7]), the IC50 is more than 400 µM.
Take `Nc1ncnc2c1ncn2[C@@H]1O[C@H](C[C@@H](N)CC[C@H](N)C(=O)O)[C@@H](O)[C@H]1O` [sinefungin]: the IC50 against NSUN2 [2] is 8.9 µM; at DNMT3A, 0.7 µM. Besides, at NSUN2 [4], the “effect of inhibitor on probe 9a fluorescence activation by NSUN2” value is reported as “reduces significantly; also recorded: significant reduction in fluorescence intensity”.
d(CG-C-GCG)2 [7a]: in data set [5] (absence of MgCl2), the “duplex stabilisation by m5C (ΔΔG°310 per m5C)” value is given as 0.5 kcal/mol per m5C and the “increase in melting temperature (Tm) per m5C” value came to 1.7 °C per m5C. Further, in data set [5] (setting [8]), the “ΔΔH° 7a→7b” value is on record as 7.3 kcal/mol, the “ΔΔS° 7a→7b” value is 31.6 cal/mol/K and the “increase in duplex stability on m5C methylation (ΔΔG°310)” value came out at 2.5 kcal/mol.
Regarding d(CG-m^5C-GCG)2 [7b], the “free energy of B-to-Z transition (ΔΔG°T)” value in data set [5] (ΔG°310 of 7b (20 mM MgCl2) vs 7b* (no MgCl2)) is approximately 1.5 kcal/mol. The “midpoint MgCl2 concentration for B-Z transition” value in data set [6] was ~ 10 mM.
As for r(CG-C-GCG)2 [1a], in data set [5] (setting [8]), the “increase in duplex stability on m5C methylation (ΔΔG°310)” value is approximately 0.8 kcal/mol.
